Earlier results, collected in PubChem BioAssay AID1259409 (Chemical Carcinogenesis Research Information System (CCRIS), 2018).

Tested on: rodent chemically induced tumor inhibition, incidence and multiplicity
Assay: CCRIS tumor inhibitor studies
Conditions: Route [Inhibitor]: ORAL, Species: RAT, Promoter: NONE USED

## O=C1O[C@H]([C@@H](O)CO)C(O)=C1O
Carcinogen: N-ETHYL-N-(4-HYDROXYBUTYL)NITROSAMINE, 54897-62-0, Dose [Inhibitor]: 5% IN BASAL DIET ADMINISTERED SIMULTANEOUSLY WITH CARCINOGEN DOSE FOR 20 WK (STUDY DURATION: 20 WK), Strain/Sex: F344/MALE, Target Tissue: Type of Lesion: BLADDER: PAPILLOMA, Dose [Carcinogen]: 0.021% IN DRINKING WATER FOR 20 WK
  tumour outcome (control, treated, inhibition, significance): 14/15 (93%), 12/15 (80%), 14%, not significant
Carcinogen: N-METHYL-N-NITROSOUREA, 684-93-5, Dose [Inhibitor]: 0, 5% IN DIET BEGINNING POST CARCINOGEN TREATMENT AND CONTINUING FOR 23 WK (STUDY DURATION: 25 WK), Strain/Sex: F344/MALE, Target Tissue: Type of Lesion: FORESTOMACH: PAPILLOMA, Dose [Carcinogen]: 50 MG/KG 4/2 WK
  tumour outcome (control, treated, inhibition, significance): 8/17 (47%), 7/20 (35%), 26%, not calculated
Carcinogen: N-METHYL-N-NITROSOUREA, 684-93-5, Dose [Inhibitor]: 0, 5% IN DIET BEGINNING POST CARCINOGEN TREATMENT AND CONTINUING FOR 23 WK (STUDY DURATION: 25 WK), Strain/Sex: F344/MALE, Target Tissue: Type of Lesion: FORESTOMACH: SQUAMOUS CELL CARCINOMA, Dose [Carcinogen]: 50 MG/KG 4/2 WK
  tumour outcome (control, treated, inhibition, significance): 2/17 (12%), 2/20 (10%), 17%, not calculated
Carcinogen: N-METHYL-N-NITROSOUREA, 684-93-5, Dose [Inhibitor]: 0, 5% IN DIET BEGINNING POST CARCINOGEN TREATMENT AND CONTINUING FOR 23 WK (STUDY DURATION: 25 WK), Strain/Sex: F344/MALE, Target Tissue: Type of Lesion: HEMATOPOIETIC SYSTEM: LYMPHOMA OR LEUKEMIA, Dose [Carcinogen]: 50 MG/KG 4/2 WK
  tumour outcome (control, treated, inhibition, significance): 3/17 (18%), 4/20 (20%), -11%, not calculated
Carcinogen: N-METHYL-N-NITROSOUREA, 684-93-5, Dose [Inhibitor]: 0, 5% IN DIET BEGINNING POST CARCINOGEN TREATMENT AND CONTINUING FOR 23 WK (STUDY DURATION: 25 WK), Strain/Sex: F344/MALE, Target Tissue: Type of Lesion: SMALL INTESTINE: ADENOCARCINOMA, Dose [Carcinogen]: 50 MG/KG 4/2 WK
  tumour outcome (control, treated, inhibition, significance): 9/17 (53%), 0/20 (0%), 100%, not calculated
Carcinogen: N-METHYL-N-NITROSOUREA, 684-93-5, Dose [Inhibitor]: 0, 5% IN DIET BEGINNING POST CARCINOGEN TREATMENT AND CONTINUING FOR 23 WK (STUDY DURATION: 25 WK), Strain/Sex: F344/MALE, Target Tissue: Type of Lesion: SMALL INTESTINE: ADENOMA, Dose [Carcinogen]: 50 MG/KG 4/2 WK
  tumour outcome (control, treated, inhibition, significance): 10/17 (59%), 16/20 (80%), -36%, not calculated
Carcinogen: N-METHYL-N-NITROSOUREA, 684-93-5, Dose [Inhibitor]: 0, 5% IN DIET BEGINNING POST CARCINOGEN TREATMENT AND CONTINUING FOR 23 WK (STUDY DURATION: 25 WK), Strain/Sex: F344/MALE, Target Tissue: Type of Lesion: THYROID: ADENOCARCINOMA, Dose [Carcinogen]: 50 MG/KG 4/2 WK
  tumour outcome (control, treated, inhibition, significance): 1/17 (6%), 0/20 (0%), 100%, not calculated
Carcinogen: N-METHYL-N-NITROSOUREA, 684-93-5, Dose [Inhibitor]: 0, 5% IN DIET BEGINNING POST CARCINOGEN TREATMENT AND CONTINUING FOR 23 WK (STUDY DURATION: 25 WK), Strain/Sex: F344/MALE, Target Tissue: Type of Lesion: THYROID: ADENOMA, Dose [Carcinogen]: 50 MG/KG 4/2 WK
  tumour outcome (control, treated, inhibition, significance): 3/17 (18%), 6/20 (30%), -67%, not calculated
Carcinogen: N-METHYL-N-NITROSOUREA, 684-93-5, Dose [Inhibitor]: 0, 5% IN DIET BEGINNING POST CARCINOGEN TREATMENT AND CONTINUING FOR 23 WK (STUDY DURATION: 25 WK), Strain/Sex: F344/MALE, Target Tissue: Type of Lesion: TONGUE: PAPILLOMA, Dose [Carcinogen]: 50 MG/KG 4/2 WK
  tumour outcome (control, treated, inhibition, significance): 2/17 (12%), 4/20 (20%), -67%, not calculated
Carcinogen: N-METHYL-N-NITROSOUREA, 684-93-5, Dose [Inhibitor]: 0, 5% IN DIET BEGINNING POST CARCINOGEN TREATMENT AND CONTINUING FOR 23 WK (STUDY DURATION: 25 WK), Strain/Sex: F344/MALE, Target Tissue: Type of Lesion: TONGUE: SQUAMOUS CELL CARCINOMA, Dose [Carcinogen]: 50 MG/KG 4/2 WK
  tumour outcome (control, treated, inhibition, significance): 2/17 (12%), 2/20 (10%), 17%, not calculated
Carcinogen: N-METHYL-N-NITROSOUREA, 684-93-5, Dose [Inhibitor]: 0, 5% IN DIET BEGINNING POST CARCINOGEN TREATMENT AND CONTINUING FOR 23 WK (STUDY DURATION: 25 WK), Strain/Sex: F344/MALE, Target Tissue: Type of Lesion: URINARY BLADDER: PAPILLOMA, Dose [Carcinogen]: 50 MG/KG 4/2 WK
  tumour outcome (control, treated, inhibition, significance): 2/17 (12%), 10/20 (50%), -316%, not calculated
Carcinogen: N-METHYL-N-NITROSOUREA, 684-93-5, Dose [Inhibitor]: 0, 5% IN DIET BEGINNING POST CARCINOGEN TREATMENT AND CONTINUING FOR 23 WK (STUDY DURATION: 25 WK), Strain/Sex: F344/MALE, Target Tissue: Type of Lesion: URINARY BLADDER: TRANSITIONAL CELL CARCINOMA, Dose [Carcinogen]: 50 MG/KG 4/2 WK
  outcome: 0/17 (0%), 2/20 (10%), -100%, not calculated
Carcinogen: N-METHYL-N-NITROSOUREA, 684-93-5, Dose [Inhibitor]: 1% IN 20% FAT DIET DAILY STARTING 2 WK BEFORE START OF CARCINOGEN TREATMENT AND CONTINUING FOR DURATION OF STUDY (STUDY, Strain/Sex: F344/FEMALE, Target Tissue: Type of Lesion: COLON: ADENOMA, ADENOCARCINOMA, Dose [Carcinogen]: 2 MG 2/WK FOR 2 WK
  tumour outcome (control, treated, inhibition, significance): 42%, 46%, -10%, not significant
